Laboratory results as given in patent publication US20140057915A1, “KINASE INHIBITORS” (TOPIVERT PHARMA LIMITED, priority 2012, published 2014).

Columns and labels:
GSK3α = GSK3α (Homo sapiens, UniProt P49840); assay: GSK 3α enzyme inhibition (FRET), Method 1; assay type: biochemical; conditions: Table 4a1
Procedure, shortened: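 Inhibition is scored from phosphorylation of a dual-labelled synthetic peptide, measured by FRET after protease cleavage of unphosphorylated substrate. Incubations are 2 hr compound with enzyme, then 1 hr kinase reaction.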

[1] = system: TNFα release, d-U937 cells; assay: LPS-induced TNFα release in d-U937 cells; assay type: cell-based; conditions: Homo sapiens, dU937; relative to 10 μg/mL BIRB796; Table 4c1; read-out: LPS Induced Release of Cytokine in d-U937 Cells, TNFα REC50
Procedure, shortened: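 Sandwich ELISA quantifies cytokine in supernatants after 4 hr LPS challenge (0.1 μg/mL) of PMA-differentiated (100 ng/mL, 48–72 hr) U937 macrophages given compound 2 hr beforehand. REC50 derived from concentration-response curve, inhibition calculated relative to vehicle.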

[2] = system: ICAM-1 expression, BEAS2B cells; assay: Poly I:C-induced ICAM-1 expression in BEAS2B cells; assay type: cell-based; conditions: Homo sapiens, BEAS-2B; read-out: Poly IC induced ICAM1 in BEAS2B, IC50
Procedure, shortened: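 Cell-based ELISA for surface ICAM-1 in human BEAS2B cells 18 h after transfection with the RNA-virus mimic poly I:C (1 μg/mL, with Oligofectamine), compounds added 2 h beforehand. OD450–655 divided by Crystal Violet OD595 per well; percent inhibition relative to vehicle.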

[3] = system: IL-8 release, d-U937 cells; assay: LPS-induced IL-8 release in d-U937 cells; assay type: cell-based; conditions: Homo sapiens, dU937; Table 4c1; read-out: LPS Induced Release of Cytokine in d-U937 Cells, IL-8 IC50
Procedure, shortened: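 IL-8 release after a 4 hr challenge with LPS (0.1 μg/mL, E. coli 0111:B4) following a 2 hr compound pretreatment. Cells were human U937 monocytes differentiated to macrophage-type with PMA 100 ng/mL for 48–72 hr. Relative 50% effective concentration derived from concentration–response data.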

Syk = Syk (Homo sapiens, UniProt P43405); assay: Syk enzyme inhibition (FRET); assay type: biochemical; conditions: Table 4a1
Procedure, shortened: (§1)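 Kinase activity is measured on a dual-labelled synthetic peptide by FRET. ATP is supplied as an 800 μM solution for c-Src and a 60 μM solution for Syk. Compound is tested at four added concentrations, 4 to 0.004 μg/mL.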

d-U937 cells = assay: Cell viability: MTT assay; assay type: cell-based, human; conditions: 1 μg/mL
Procedure, shortened: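 MTT reduction (1 h, DMSO solubilisation, A550) measured after compound treatment at 1 or 10 μg/mL of differentiated U937 cells for 4 h (5% FCS RPMI1640) or 24 h (10% FCS). Percentage viability loss computed relative to 0.5% DMSO vehicle, with increases tabulated as negative values.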

cSrc = cSrc (Homo sapiens, UniProt P12931); assay: c-Src enzyme inhibition (FRET); assay type: biochemical; conditions: Table 4a1
Procedure, shortened: as §1

Sequence of GSK3α (P49840 whole entry): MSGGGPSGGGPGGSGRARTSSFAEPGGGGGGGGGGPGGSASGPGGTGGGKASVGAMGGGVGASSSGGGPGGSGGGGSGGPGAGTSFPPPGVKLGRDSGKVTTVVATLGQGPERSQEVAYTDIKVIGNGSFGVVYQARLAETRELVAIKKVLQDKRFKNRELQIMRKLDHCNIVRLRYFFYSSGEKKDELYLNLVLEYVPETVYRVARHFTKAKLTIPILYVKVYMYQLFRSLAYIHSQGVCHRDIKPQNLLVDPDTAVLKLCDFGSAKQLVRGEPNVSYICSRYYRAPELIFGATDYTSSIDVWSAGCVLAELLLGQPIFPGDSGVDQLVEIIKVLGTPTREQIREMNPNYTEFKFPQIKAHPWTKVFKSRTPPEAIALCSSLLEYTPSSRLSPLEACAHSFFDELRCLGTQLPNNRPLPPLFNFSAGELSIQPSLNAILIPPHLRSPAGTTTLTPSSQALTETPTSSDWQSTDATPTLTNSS
Sequence of cSrc (P12931 whole entry): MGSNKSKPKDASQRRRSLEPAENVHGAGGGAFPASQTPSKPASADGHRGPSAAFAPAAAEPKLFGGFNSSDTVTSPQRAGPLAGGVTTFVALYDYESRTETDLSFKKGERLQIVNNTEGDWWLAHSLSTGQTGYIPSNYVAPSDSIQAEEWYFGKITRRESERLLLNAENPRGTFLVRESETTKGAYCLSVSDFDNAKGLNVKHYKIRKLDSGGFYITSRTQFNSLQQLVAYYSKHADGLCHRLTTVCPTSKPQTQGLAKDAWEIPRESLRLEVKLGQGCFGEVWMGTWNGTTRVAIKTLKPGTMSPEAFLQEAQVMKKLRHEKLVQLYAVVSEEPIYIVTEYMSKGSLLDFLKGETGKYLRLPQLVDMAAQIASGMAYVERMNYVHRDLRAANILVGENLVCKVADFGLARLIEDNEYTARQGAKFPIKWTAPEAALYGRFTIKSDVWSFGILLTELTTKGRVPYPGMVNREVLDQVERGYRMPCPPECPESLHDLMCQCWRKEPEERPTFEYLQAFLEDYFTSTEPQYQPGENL

IC50 (GSK3α)	EC50 [1]	IC50 [3]	IC50 (Syk)	IC50 (cSrc)	SMILES	IC50 [2]	Cell viability at time point in d-U937 cells, 4 h (d-U937 cells)	Cell viability at time point in d-U937 cells, 24 h (d-U937 cells)
281 nM	3.3 nM	2.1 nM	4 nM	3 nM	COCCOc1cccc(-n2nc(C(C)(C)C)cc2NC(=O)Nc2ccc(Oc3ccnc(Nc4cc(OC)cc(C(=O)NCCN5CCOCC5)c4)n3)c3ccccc23)c1 [Example 55, 3-((4-((4-(3-(3-(tert-butyl)-1-(3-(2-methoxyethoxy)phenyl)-1H-pyrazol-5-yl)ureido)naphthalen-1-yl)oxy)pyrimidin-2-yl)amino)-5-methoxy-N-(2-morpholinoethyl)benzamide]	5.8 nM	−ve (−ve and +ve indicate that the value is below and above respectively, the no significant effect threshold, defined as 30% inhibition at 1 μg/mL at the time point indicated)	−ve (−ve and +ve indicate that the value is below and above respectively, the no significant effect threshold, defined as 30% inhibition at 1 μg/mL at the time point indicated)
995 nM	1.4 nM	1.8 nM	13 nM	7 nM	Cc1ccc(-n2nc(C(C)(C)C)cc2NC(=O)Nc2ccc(Oc3ccnc(Nc4cc(Br)cc(C(=O)NCCN5CCOCC5)c4)n3)c3ccccc23)cc1 [Example 62, 3-bromo-5-((4-((4-(3-(3-(tert-butyl)-1-(p-tolyl)-1H-pyrazol-5-yl)ureido)naphthalen-1-yl)oxy)pyrimidin-2-yl)amino)-N-(2-morpholinoethyl)benzamide]	1 nM	−ve (−ve and +ve indicate that the value is below and above respectively, the no significant effect threshold, defined as 30% inhibition at 1 μg/mL at the time point indicated)	+ve (−ve and +ve indicate that the value is below and above respectively, the no significant effect threshold, defined as 30% inhibition at 1 μg/mL at the time point indicated)
> 13200 nM	1.1 nM	3.9 nM	60 nM	13 nM	Cc1ccc(-n2nc(C(C)C)cc2NC(=O)Nc2ccc(Oc3ccnc(Nc4cc(Cl)cc(C(=O)NCCN5CCOCC5)c4)n3)c3ccccc23)cc1 [Example 60, 3-chloro-5-((4-((4-(3-(3-isopropyl-1-(p-tolyl)-1H-pyrazol-5-yl)ureido)naphthalen-1-yl)oxy)pyrimidin-2-yl)amino)-N-(2-morpholinoethyl)benzamide]	132 nM	−ve (−ve and +ve indicate that the value is below and above respectively, the no significant effect threshold, defined as 30% inhibition at 1 μg/mL at the time point indicated)	−ve (−ve and +ve indicate that the value is below and above respectively, the no significant effect threshold, defined as 30% inhibition at 1 μg/mL at the time point indicated)
> 13000 nM	3.7 nM	24.1 nM	149 nM	27 nM	COc1cc(C(=O)NCCN2CCOCC2)ccc1Nc1nccc(Oc2ccc(NC(=O)Nc3cc(C(C)(C)C)nn3-c3ccc(C)cc3)c3ccccc23)n1 [Example 37, 4-((4-((4-(3-(3-(tert-butyl)-1-(p-tolyl)-1H-pyrazol-5-yl)ureido)naphthalen-1-yl)oxy)pyrimidin-2-yl)amino)-3-methoxy-N-(2-morpholinoethyl)benzamide]	19.6 nM	−ve (−ve and +ve indicate that the value is below and above respectively, the no significant effect threshold, defined as 30% inhibition at 1 μg/mL at the time point indicated)	−ve (−ve and +ve indicate that the value is below and above respectively, the no significant effect threshold, defined as 30% inhibition at 1 μg/mL at the time point indicated)
6940 nM	1.1 nM	2 nM	32 nM	9 nM	COc1ccc(-n2nc(C(C)C)cc2NC(=O)Nc2ccc(Oc3ccnc(Nc4cc(Cl)cc(C(=O)NCCN5CCOCC5)c4)n3)c3ccccc23)cc1 [Example 61, 3-chloro-5-((4-((4-(3-(3-isopropyl-1-(4-methoxyphenyl)-1H-pyrazol-5-yl)ureido)naphthalen-1-yl)oxy)pyrimidin-2-yl)amino)-N-(2-morpholinoethyl)benzamide]	129 nM	−ve (−ve and +ve indicate that the value is below and above respectively, the no significant effect threshold, defined as 30% inhibition at 1 μg/mL at the time point indicated)	−ve (−ve and +ve indicate that the value is below and above respectively, the no significant effect threshold, defined as 30% inhibition at 1 μg/mL at the time point indicated)

Second part, the molecule before the results:

SMILES	IC50 (GSK3α)	EC50 [1]	IC50 [3]	IC50 (Syk)	IC50 (cSrc)	IC50 [2]	Cell viability at time point in d-U937 cells, 4 h (d-U937 cells)	Cell viability at time point in d-U937 cells, 24 h (d-U937 cells)
Cc1ccc(-n2nc(C(C)(C)C)cc2NC(=O)Nc2ccc(Oc3ccnc(Nc4cccc(C(=O)N(C)C)c4)n3)c3ccccc23)cc1 [Example 26, 3-((4-((4-(3-(3-(tert-butyl)-1-(p-tolyl)-1H-pyrazol-5-yl)ureido)naphthalen-1-yl)oxy)pyrimidin-2-yl)amino)-N,N-dimethylbenzamide]	390 nM	0.5 nM	2.3 nM	14 nM	6 nM	11.1 nM	−ve (−ve and +ve indicate that the value is below and above respectively, the no significant effect threshold, defined as 30% inhibition at 1 μg/mL at the time point indicated)	−ve (−ve and +ve indicate that the value is below and above respectively, the no significant effect threshold, defined as 30% inhibition at 1 μg/mL at the time point indicated)
COc1ccc(-n2nc(C(C)C)cc2NC(=O)Nc2ccc(Oc3ccnc(Nc4cc(C(=O)NCCO)ccc4OC)n3)c3ccccc23)cc1 [Example 34, N-(2-hydroxyethyl)-3-((4-((4-(3-(3-isopropyl-1-(4-methoxyphenyl)-1H-pyrazol-5-yl)ureido)naphthalen-1-yl)oxy)pyrimidin-2-yl)amino)-4-methoxybenzamide]	> 14200 nM	14.2 nM	73.5 nM	85 nM	2 nM	79.9 nM	+ve (−ve and +ve indicate that the value is below and above respectively, the no significant effect threshold, defined as 30% inhibition at 1 μg/mL at the time point indicated)	−ve (−ve and +ve indicate that the value is below and above respectively, the no significant effect threshold, defined as 30% inhibition at 1 μg/mL at the time point indicated)
COc1cc(C(=O)NCCN(C)C)ccc1Nc1nccc(Oc2ccc(NC(=O)Nc3cc(C(C)C)nn3-c3ccc(C)cc3)c3ccccc23)n1 [Example 35, N-(2-(dimethylamino)ethyl)-4-((4-((4-(3-(3-isopropyl-1-(p-tolyl)-1H-pyrazol-5-yl)ureido)naphthalen-1-yl)oxy)pyrimidin-2-yl)amino)-3-methoxybenzamide]	> 14000 nM	27.8 nM	3.2 nM	30 nM	< 1 nM	140 nM	−ve (−ve and +ve indicate that the value is below and above respectively, the no significant effect threshold, defined as 30% inhibition at 1 μg/mL at the time point indicated)	−ve (−ve and +ve indicate that the value is below and above respectively, the no significant effect threshold, defined as 30% inhibition at 1 μg/mL at the time point indicated)
Cc1ccc(-n2nc(C(C)(C)C)cc2NC(=O)Nc2ccc(Oc3ccnc(Nc4cccc(C(=O)NCCN(C)C)c4)n3)c3ccccc23)cc1 [Example 18, 3-((4-((4-(3-(3-(tert-butyl)-1-(p-tolyl)-1H-pyrazol-5-yl)ureido)naphthalen-1-yl)oxy)pyrimidin-2-yl)amino)-N-(2-(dimethylamino)ethyl)benzamide]	295 nM	1.5 nM	1.8 nM	> 1440 nM	7 nM	2.3 nM	−ve (−ve and +ve indicate that the value is below and above respectively, the no significant effect threshold, defined as 30% inhibition at 1 μg/mL at the time point indicated)	−ve (−ve and +ve indicate that the value is below and above respectively, the no significant effect threshold, defined as 30% inhibition at 1 μg/mL at the time point indicated)
